Reference: ChEMBL document CHEMBL4715865, “Antimyeloma Potential of Caffeic Acid Phenethyl Ester and Its Analogues through Sp1 Mediated Downregulation of IKZF1-IRF4-MYC Axis” (J Nat Prod, 2020)
Calls of active or inactive are those of the source. The calls are words filed in the database; no cut-off is given here.

What was measured:
[1] = Induction of apoptosis in human KMM-1 cells assessed as increase in cleaved caspace-3 expression at 50 uM after 48 hrs by immunoblotting analysis; type: functional
KMM-1 [2] = test: Growth inhibition of human KMM-1 cells at 1 to 10 uM after 48 hrs by PrestoBlue cell viability assay; type: functional, cell-based; settings: dose 1-10 µM
KMM-1 [3] = test: Growth inhibition of human KMM-1 cells at 0.001 to 50 uM after 48 hrs by PrestoBlue cell viability assay; type: functional, cell-based; settings: dose 0.001-50 µM
[4] = Induction of apoptosis in human KMM-1 cells assessed as apoptotic cells at 10 uM after 72 hrs by Annexin V/PropidiumIodide staining based flow cytometric analysis relative to control; type: functional
[5] = Induction of apoptosis in human MM1.R cells assessed as apoptotic cells at 10 uM after 72 hrs by Annexin V/PropidiumIodide staining based flow cytometric analysis relative to control; type: functional, MM.1R
KMM-1 [6] = test: Down regulation of cyclin D3 expression in human KMM-1 cells at 5 to 50 uM after 48 hrs by immunoblotting analysis; type: functional, cell-based; settings: dose 5-50 µM
[7] = Potency index, ratio of lenalidomide IC50 to test compound IC50 for growth inhibition of human KMM-1 cells; type: functional
[8] = Growth inhibition of human MM1.R cells after 48 hrs by PrestoBlue cell viability assay; type: functional; settings: MM.1R
[9] = Growth inhibition of human KMM-1 cells after 48 hrs by PrestoBlue cell viability assay; type: functional, cell-based; settings: KMM-1, 48 h
MM.1R [10] = test: Down regulation of MYC protein expression in human MM1.R cells at 10 uM after 48 hrs by immunoblotting analysis; type: functional, cell-based
MM.1R [11] = test: Down regulation of SP1 protein expression in human MM1.R cells at 10 uM after 48 hrs by immunoblotting analysis; type: functional, cell-based
MM.1R [12] = test: Induction of apoptosis in human MM1.R cells assessed as increase in cleaved caspace-8 protein expression at 10 uM after 48 hrs by immunoblotting analysis; type: functional, cell-based
JJN-3 = test: Growth inhibition of human JJN-3 cells after 48 hrs by PrestoBlue cell viability assay; type: functional, cell-based; settings: JJN-3, 48 h
KMM-1 [13] = test: Growth inhibition of human KMM-1 cells at 10 uM after 48 hrs by PrestoBlue cell viability assay relative to control; type: functional

O=C(/C=C/c1ccc(O)c(O)c1)OCCC1CCCCC1
fold change (FC) [1]: 3.2
growth inhibition (GI) (KMM-1 [2]): Active

Nc1cccc2c1C(=O)N(C1CCC(=O)NC1=O)C2=O (stereo not drawn) [POMALIDOMIDE]
growth inhibition (GI) (KMM-1 [3]): inactive
Activity [4]: 18.4%
Activity [5]: 43%

O=C(O)/C=C/c1ccc(O)c(O)c1
Activity (KMM-1 [6]): inactive
growth inhibition (GI) (KMM-1 [2]): inactive

O=C(/C=C/c1ccc(O)c(O)c1)NCCc1ccccc1
Activity (KMM-1 [6]): inactive
growth inhibition (GI) (KMM-1 [2]): Active

Oc1ccc(/C=C/COCCCc2ccccc2)cc1O
Ratio IC50 [7]: 6.5
IC50 [8]: 2 µM
IC50 [9]: 6.6 µM
Activity (MM.1R [10]): inactive
Activity (MM.1R [11]): inactive
Activity (MM.1R [12]): Active
IC50 (JJN-3): 14 µM

O=C(/C=C/c1cccc(O)c1O)OCCCc1ccccc1
growth inhibition (GI) (KMM-1 [13]): inactive

COc1cc(/C=C/C(=O)OCCCc2ccccc2)cc(OC)c1O
growth inhibition (GI) (KMM-1 [13]): inactive
